Data set [1] has as its target Metabotropic glutamate receptor 2 (Homo sapiens, UniProt Q14416). The data set can be described thus: Non-competitive antagonist activity at human recombinant mGluR2 expressed in Chem-1 cell membrane assessed as inhibition of L-glutamate-induced [35S]GTPgammaS binding after 30 mins by liquid scintillation counting analysis. The format is functional, cell membranes.

Data set [2] deals with Albumin (Homo sapiens, UniProt P02768). In words: Protein binding in human serum albumin by chromatography. It is filed as ADME. The note with it: read-out: PPB (converted).
Data set [3] is described as follows: Lipophilicity, log P of the compound by HPLC analysis. The format is physicochemical.

The results in this text go back to ChEMBL document CHEMBL3132773, “Synthesis and biological evaluation of novel 2,3-dihydro-1H-1,5-benzodiazepin-2-ones; potential imaging agents of the metabotropic glutamate 2 receptor” (Medchemcomm, 2013).

pIC50: −log10 of the molar value.

Broadly, the pIC50 is −log10 of the IC50, conventionally taken in molar units. The term logP denotes a log measure of how a compound divides between an organic and an aqueous phase. Read a high logP as higher lipophilicity.

Chain of Albumin (P02768 whole entry): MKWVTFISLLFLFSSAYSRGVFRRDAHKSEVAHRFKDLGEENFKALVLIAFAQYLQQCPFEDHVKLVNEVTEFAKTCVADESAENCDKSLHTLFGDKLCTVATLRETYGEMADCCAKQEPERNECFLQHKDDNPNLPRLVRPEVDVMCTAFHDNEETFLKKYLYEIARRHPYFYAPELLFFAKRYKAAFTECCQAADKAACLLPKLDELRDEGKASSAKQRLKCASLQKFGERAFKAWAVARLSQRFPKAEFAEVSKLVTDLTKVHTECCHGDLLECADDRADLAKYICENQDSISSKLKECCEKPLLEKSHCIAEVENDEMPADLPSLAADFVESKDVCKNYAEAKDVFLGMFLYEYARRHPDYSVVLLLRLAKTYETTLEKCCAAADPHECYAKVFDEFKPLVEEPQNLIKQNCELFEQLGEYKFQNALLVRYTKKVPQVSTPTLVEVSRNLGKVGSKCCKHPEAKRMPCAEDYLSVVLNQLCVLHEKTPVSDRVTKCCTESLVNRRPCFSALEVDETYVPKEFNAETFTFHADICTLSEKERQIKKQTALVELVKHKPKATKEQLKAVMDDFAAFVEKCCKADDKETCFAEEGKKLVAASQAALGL
Chain of Metabotropic glutamate receptor 2 (Q14416 whole entry): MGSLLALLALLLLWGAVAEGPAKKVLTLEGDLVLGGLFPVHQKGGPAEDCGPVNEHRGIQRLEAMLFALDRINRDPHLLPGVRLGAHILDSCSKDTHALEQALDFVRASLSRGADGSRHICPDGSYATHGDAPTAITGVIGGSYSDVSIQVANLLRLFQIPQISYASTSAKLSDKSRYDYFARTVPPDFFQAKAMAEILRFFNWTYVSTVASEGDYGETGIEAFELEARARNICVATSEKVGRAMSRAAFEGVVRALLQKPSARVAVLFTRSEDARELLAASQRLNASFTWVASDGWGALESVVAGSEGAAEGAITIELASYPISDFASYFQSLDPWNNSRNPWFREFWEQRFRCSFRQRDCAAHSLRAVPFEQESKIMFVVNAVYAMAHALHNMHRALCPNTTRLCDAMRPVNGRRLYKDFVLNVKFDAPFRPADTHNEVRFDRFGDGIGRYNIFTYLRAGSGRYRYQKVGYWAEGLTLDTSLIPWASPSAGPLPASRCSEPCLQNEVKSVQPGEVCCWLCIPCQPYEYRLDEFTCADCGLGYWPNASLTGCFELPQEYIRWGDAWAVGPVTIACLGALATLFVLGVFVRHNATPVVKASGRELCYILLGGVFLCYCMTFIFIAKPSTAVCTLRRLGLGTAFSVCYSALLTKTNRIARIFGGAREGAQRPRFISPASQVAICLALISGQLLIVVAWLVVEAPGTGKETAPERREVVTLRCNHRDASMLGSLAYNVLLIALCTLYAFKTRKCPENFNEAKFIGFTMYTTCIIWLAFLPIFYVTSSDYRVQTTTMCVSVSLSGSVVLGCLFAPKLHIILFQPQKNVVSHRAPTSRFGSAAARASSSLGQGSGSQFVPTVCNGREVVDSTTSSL

As for `Clc1cccc(Cl)c1/C(=C/n1cncn1)OC1CCCCCC1`, in data set [1], the pIC50 is 6.27.
`O=C1CC(c2cccc(-n3ccnc3)c2)=Nc2ccc(I)cc2N1`: in data set [2], the fraction unbound was 0.0508. Moreover, in data set [1], the pIC50 was 7.05. This compound also registered a logP in data set [3] of 4.6.
Regarding `O=C1CC(c2cccc(-n3ccnc3)c2)=Nc2ccc(-c3cccc(I)c3)cc2N1`, the fraction unbound in data set [2] was 0.0154. In data set [1], the pIC50 is 6.88. The same compound had a lipophilicity (logP) in data set [3] of 5.73.
The like results for `O=C1CC(c2cccc(-n3ccnc3)c2)=Nc2ccc(-c3ccc(I)cc3)cc2N1` were, in that order, 0.0133, 6.88 and 5.77.
For `COc1cc2c(cc1C(F)(F)F)NC(=O)CC(c1cccc(-n3ccnc3)c1)=N2` the same measures were 0.0759, 7.04 and 4.67.
The like results for `O=C1CC(c2cccc(-n3ccnc3)c2)=Nc2cc(OCCCF)c(C(F)(F)F)cc2N1` were, in that order, 0.0488, 7.00 and 5.06.
Consider `COc1cc2c(cc1-c1ccc(I)cc1)NC(=O)CC(c1cccc(-n3ccnc3)c1)=N2`, for which the fraction unbound in data set [2] is 0.0168. Moreover, the pIC50 in data set [1] is 7.05. Moreover, in data set [3], the logP turned out to be 5.72.
